Reference: ChEMBL document CHEMBL1125004, “Chemistry and pharmacology of the non-benzodiazepine anxiolytic enciprazine and related compounds” (1990)

Columns and labels:
Mus musculus [1] = species on record: Mus musculus; test: Ataxic activity in mice by rotarod test; Range (87.7-114.6); format: functional
[2] = Ratio of ED50 (hexobarbital) to that of ED50 (fighting); format: functional
Rattus norvegicus = test: Antiaggressive anxiolytic activity in the hexagonal maze test in rat after po administration of 2.6 mg/kg; format: functional
Mus musculus [3] = species on record: Mus musculus; test: Effect on hexobarbital induced sleep was determined in hexobarbital potentiation test; Range (181.4-219.9); format: functional
[4] = Ratio of ED50 (rotarod) to that of ED50 (fighting); format: functional
Mus musculus [5] = test: Antiaggressive anxiolytic activity in the electroshock-induced fighting test in mice (po); Range (1.46-5.72); format: functional
Mus musculus [6] = test: Antiaggressive anxiolytic activity in the electroshock-induced fighting test in mice (po); Range (8.3-16.1); format: functional
Mus musculus [7] = test: Antiaggressive anxiolytic activity in the electroshock-induced fighting test in mice (po); Range (13.27-18.96); format: functional
Mus musculus [8] = test: Antiaggressive anxiolytic activity in the electroshock-induced fighting test in mice (po); Range (1.19-5.72); format: functional
Mus musculus [9] = test: Antiaggressive anxiolytic activity in the electroshock-induced fighting test in mice (po); Range (11.7-20.3); format: functional
Mus musculus [10] = test: Antiaggressive anxiolytic activity in the electroshock-induced fighting test in mice (po); Range (0.69-2.88); format: functional
Mus musculus [11] = species on record: Mus musculus; test: Effect on hexobarbital induced sleep was determined in hexobarbital potentiation test; Range (1 19.4-168.3); format: functional
Mus musculus [12] = species on record: Mus musculus; test: Ataxic activity in mice by rotarod test; Range (231.4-298.5); format: functional
Mus musculus [13] = test: Antiaggressive anxiolytic activity in the electroshock-induced fighting test in mice (po); Range (1 7.3-25.4); format: functional
Mus musculus [14] = test: Antiaggressive anxiolytic activity in the electroshock-induced fighting test in mice (po); Range (9.4-17.88); format: functional
Mus musculus [15] = test: Antiaggressive anxiolytic activity in the electroshock-induced fighting test in mice (po); Range (3.1-7.7); format: functional
Mus musculus [16] = species on record: Mus musculus; test: Ataxic activity in mice by rotarod test; Range (355.1-460.2); format: functional
Mus musculus [17] = test: Effect on hexobarbital induced sleep was determined in hexobarbital potentiation test (po); Range (76.3-106.2); format: functional
Mus musculus [18] = test: Antiaggressive anxiolytic activity in the electroshock-induced fighting test in mice (po); Range (7.3-11.9); format: functional
Monkey [19] = test: Tested for ability to maintain self-administration after administration of 0.3 mg/kg in monkey 2037 (60.1+/-5.3); format: functional, Cercopithecidae
Monkey [20] = test: Tested for ability to maintain self-administration after administration of 0.3 mg/kg in monkey 2036 (44.9 +/-5.6); format: functional, Cercopithecidae
Monkey [21] = test: Tested for ability to maintain self-administration after administration of 0.3 mg/kg in monkey 3038 (53.9+/-9.3); format: functional, Cercopithecidae
Monkey [22] = test: Tested for ability to maintain self-administration after administration of 0.3 mg/kg in monkey 9079 (56.5+/-18.0); format: functional, Cercopithecidae
Monkey [23] = test: Tested for ability to maintain self-administration after administration of 0.1 mg/kg in monkey 9083 (59.8+/-15.8); format: functional, Cercopithecidae
Monkey [24] = test: Tested for ability to maintain self-administration after administration of 0.3 mg/kg in monkey 3017 (76.6+/-15.9); format: functional, Cercopithecidae
Mus musculus [25] = species on record: Mus musculus; test: Ataxic activity in mice by rotarod test; Range (1.1-5.3); format: functional
Mus musculus [26] = test: Antiaggressive anxiolytic activity in the electroshock-induced fighting test in mice (po); Range (6.62-10.07); format: functional
Mus musculus [27] = species on record: Mus musculus; test: Effect on hexobarbital induced sleep was determined in hexobarbital potentiation test; Range (8.3-15.4); format: functional

COc1cc(OCC(O)CN2CCN(c3ccccc3NC(C)=O)CC2)cc(OC)c1OC (centres undefined)
ED50 (Mus musculus [1]): 100 mg/kg
Therapeutic index [2]: 61
Prolongation (Rattus norvegicus): 50%
ED50 (Mus musculus [3]): 200 mg/kg
Therapeutic index [4]: 30
ED50 (Mus musculus [5]): 3.3 mg/kg

COc1cc(OCC(O)CN2CCN(c3cccc(C)c3)CC2)cc(OC)c1OC.Cl (centres undefined)
ED50 (Mus musculus [6]): 12 mg/kg

COc1ccccc1N1CCN(CC(COc2cc(OC)c(OC)c(OC)c2)OC(=O)c2cc(OC)c(OC)c(OC)c2)CC1.Cl (centres undefined)
ED50 (Mus musculus [7]): 16 mg/kg

COc1cc(OCC(O)CN2CCN(c3ccccc3OC(C)=O)CC2)cc(OC)c1OC.Cl (centres undefined)
ED50 (Mus musculus [8]): 3.3 mg/kg

COc1cc(OCC(O)CN2CCN(c3ccccc3Cl)CC2)cc(OC)c1OC.Cl (centres undefined)
ED50 (Mus musculus [9]): 16 mg/kg

COc1cc(OCC(O)CN2CCN(c3ccccc3N)CC2)cc(OC)c1OC.Cl (centres undefined)
Therapeutic index [2]: 103
ED50 (Mus musculus [10]): 1.4 mg/kg
ED50 (Mus musculus [11]): 145 mg/kg
ED50 (Mus musculus [12]): 260 mg/kg
Therapeutic index [4]: 185

COc1cc(OCC(O)CN2CCN(c3ccccc3C(F)(F)F)CC2)cc(OC)c1OC.Cl (centres undefined)
ED50 (Mus musculus [13]): 21 mg/kg

COc1ccccc1N1CCN(CC(COc2cc(OC)c(OC)c(OC)c2)OC(=O)c2cccnc2)CC1.Cl (centres undefined)
ED50 (Mus musculus [14]): 14 mg/kg

COc1cccc(N2CCN(CC(O)COc3cc(OC)c(OC)c(OC)c3)CC2)c1.Cl (centres undefined)
ED50 (Mus musculus [15]): 5.5 mg/kg

COc1cc(OCC(O)CN2CCN(c3cccc(C(F)(F)F)c3)CC2)cc(OC)c1OC.Cl (centres undefined)
ED50 (Mus musculus [16]): 400 mg/kg
Therapeutic index [2]: 10
ED50 (Mus musculus [17]): 90 mg/kg
ED50 (Mus musculus [18]): 9 mg/kg
Therapeutic index [4]: 44

CCCC(C)C1(CC)C(=O)NC(=O)NC1=O (centres undefined) [PENTOBARBITAL]
Effect (Monkey [19]): 60.1
Effect (Monkey [20]): 44.9
Effect (Monkey [21]): 53.9
Effect (Monkey [22]): 56.5
Effect (Monkey [23]): 59.8
Effect (Monkey [24]): 76.6

O=C1CN=C(c2ccccc2)c2cc(Cl)ccc2N1CC1CC1 [PRAZEPAM]
Therapeutic index [2]: 1.4
ED50 (Mus musculus [25]): 3.1 mg/kg
ED50 (Mus musculus [26]): 8 mg/kg
ED50 (Mus musculus [27]): 11.5 mg/kg
Therapeutic index [4]: 0.4
